What was measured:
E. coli = assay: Minimum Inhibitory Concentration (MIC) assay, broth microdilution and alamar blue; type: cell-based; conditions: single-active controls; 24 hours incubation
X. alfalfae = assay: as above; type: cell-based; conditions: single-active controls; 24 hours incubation
Description: Although not depicted in the figures, the antimicrobial properties of LSP materials and components were studied using standard microbiological technique to determine the Minimum Inhibitory Concentration (MIC). Samples were tested against Gram-negative Xanthomonas alfalfae subsp. citrumelonis strain F1 (ATCC 49120, a citrus canker surrogate), Gram-negative Pseudomonas syringae pv. syringae (ATCC 19310, causative agent of bacterial speck in Lilac, almond, apricots, peaches and wild beans among others) and Gram positive Clavibacter michiganensis subsp. michiganensis (ATCC 10202, causative agent of bacterial wilt and canker in Tomato sp). X. alfalfae and P. syringae were maintained with nutrient agar and broth while C. michiganensis was grown with brain heart infusion (BHI) media. All bacteria were grown at 26° C. in a shaking incubator (150 rpm).
Minimum Inhibitory Concentration (MIC) Assay
MIC was determined using two different methods: • a. Broth microdilution: Protocols as delineated by the Clinical and Laboratory Standards Institute (CLSI) were followed for conducting MIC studies to be in compliance with American Society of Microbiology guidelines. […] Since broth microdilution is based only on light absorbance, low concentration of bacteria can fall below the detection limit of the traditional optical density measurement. […]

O=S(=O)([O-])[O-].[Cu+2] [CuSO4]
MIC E. coli (E. coli): 250-500 μg active/mL
MIC X. alfalfae (X. alfalfae): 125-250 μg active/mL

CCCCCCCCCC[N+](C)(C)CCCCCCCCCC.[Cl-] [Quat, Didecyl Dimethyl Ammonium Chloride]
MIC E. coli (E. coli): 2-4 μg active/mL
MIC X. alfalfae (X. alfalfae): 2-4 μg active/mL
